Experiments:
[1] = tested on: alcohol-preferring (P) rats; experiment: Alcohol deprivation effect (ADE, relapse model), P rats; format: in vivo, rat; settings: for alcohol deprivation effect (ADE), consumption 24 hours after ethanol reinstated: Example 4, chronic daily treatment from day 8 of 15-day withdrawal, topiramate 10 mg/kg, ondansetron 0.001 mg/kg, FIG. 5A
Procedure: (§1) The effects of ondansetron and topiramate were examined for their ability to modulate two important aspects of alcohol abuse: total consumption and relapse. Total consumption was examined under a 24-hour-access two-bottle choice procedure wherein rats had unlimited access to alcohol solutions (10%) and water. Alcohol relapse was assessed in alcohol-dependent rats by examining alcohol consumption following an extended abstinence period. Specifically, in alcohol-dependent rats, when alcohol is reintroduced following an extended abstinence period, rats show marked increases in consumption as compared with levels of consumption prior to abstinence.

[2] = tested on: alcohol-preferring (P) rats; experiment: Ethanol consumption, 24-hour-access two-bottle choice (10% ethanol vs. water), P rats; format: in vivo, rat; settings: for decrease from baseline in alcohol consumption: Example 1, topiramate 10 mg/kg IP, ondansetron 0.001 mg/kg IP, test session, mean±SE of 17 rats; for decrease from baseline in alcohol consumption / preference for ethanol over water, average on test sessions / preference for ethanol over water, baseline change: P rats; for ethanol consumption vs baseline: Example 4, P rats N=18, topiramate 10 mg/kg, ondansetron 0.001 mg/kg, FIG. 4A; for preference for ethanol over water, average on test sessions: baseline average preference 0.6±0.2; for preference for ethanol over water, baseline change: test sessions
Procedure: Combined effect of topiramate (10 mg/kg, IP) and ondansetron (0.001 mg/kg, IP) on alcohol consumption in alcohol-preferring (P) rats. […] Data were plotted across 7 consecutive sessions, which include a 3-day baseline period, the test session in which the ondansetron and/or topiramate injection was administered, and the 3 sessions that followed the test session. […]
as §1
(§2) 1) The combination of topiramate and ondansetron reduces ethanol consumption in rats: Total consumption was examined under a 24-hour-access two-bottle choice procedure (10% ethanol vs. water). To induce drinking, both Wistar and P rats were trained onto ethanol using a standard sucrose fading procedure. […] At baseline, the average preference was 0.6±0.2, and the average values observed on test sessions with topiramate alone, ondansetron alone, the combination of topiramate and ondansetron, and vehicle were 0.51±0.2 (−9±4% baseline change), 0.58±0.0 (1±2%), 0.51±0.03 (−11±4%), and 0.59±0.03 (1%±0), respectively. […] At baseline, the average preference ratio was 0.30±0.03 and the average values observed on test sessions with topiramate alone, ondansetron alone, the combination of topiramate and ondansetron, and vehicle were 0.25±0.03 (−6±7% baseline change), 0.26±0.04 (2±2%), 0.31±0.02 (1±3%; P<0.05), and 0.3±0.03 (6%±4), respectively.

[3] = tested on: early-onset alcoholics; settings: ondansetron in early-onset alcoholics
[4] = tested on: Wistar rats; experiment: Ethanol consumption, 24-hour-access two-bottle choice, Wistar rats; format: in vivo, rat; settings: for alcohol consumption, change from baseline: Example 3, ondansetron 0.001 or 0.01 mg/kg with topiramate 10 mg/kg IP, 4 to 5 rats, FIG. 3; for alcohol consumption, change from baseline / preference ratio for ethanol over water, average on test sessions / preference for ethanol over water, baseline change: Wistar rats; for ethanol consumption: Example 4, Wistar rats n=5, preliminary, FIG. 4B; for preference ratio for ethanol over water, average on test sessions: baseline average 0.30±0.03; for preference for ethanol over water, baseline change: test sessions
Procedure: Combined effect of topiramate (5 and 10 mg/kg, IP) and ondansetron (0.001 and 0.01 mg/kg, IP) on alcohol consumption in Wistar rats. […] The experiments utilized four to five rats per condition. Data are expressed as change from baseline levels of alcohol consumption.
as §1, §2

[5] = tested on: early-onset alcoholics; settings: cited from earlier work
[6] = tested on: alcohol-dependent subjects; settings: topiramate alone, cited from earlier work
[7] = tested on: alcohol-dependent subjects; experiment: Topiramate alone in alcohol dependence (comparison data from a different study); format: in vivo, human

Cc1nccn1CC1CCc2c(c3ccccc3n2C)C1=O (stereo not drawn) [Ondansetron, 9-methyl-3-[(2-methyl-1H-imidazol-1-yl)methyl]-1,2,3,9-tetrahydrocarbazol-4-one]
alcohol deprivation effect (ADE), consumption 24 hours after ethanol reinstated [1]: blocked the ADE
decrease from baseline in alcohol consumption [2]: 1%±7%
ethanol consumption vs baseline [2]: did not impact ethanol consumption on its own
preference for ethanol over water, average on test sessions [2]: 0.58±0.0
preference for ethanol over water, baseline change [2]: 1±2%
Cohen's effect size: drinks per day [3]: −0.55
Cohen's effect size: drinks per drinking day [3]: −0.48
Cohen's effect size: percentage of days abstinent [3]: +0.27
alcohol consumption, change from baseline [4]: lack of modulation
ethanol consumption [4]: no affect was observed on consumption
preference ratio for ethanol over water, average on test sessions [4]: 0.26±0.04
preference for ethanol over water, baseline change [4]: 2±2%
report of weight loss ([5]; individuals taking ondansetron alone): no appreciable report of weight loss
paresthesia ([5]; ondansetron administered alone): not associated with paresthesia
mean reduction in drinks per day ([5]; ondansetron alone in early-onset alcoholics): −3.28 drinks per day

CC1(C)O[C@@H]2[C@@H](CO[C@@]3(COS(N)(=O)=O)OC(C)(C)O[C@@H]23)O1 [Topiramate, 2,3:4,5-Bis-O-(1-methylethylidene)-beta-D-fructopyranose sulfamate]
alcohol consumption following a two-week abstinence period (alcohol deprivation effect) ([1]; Example 2, topiramate 10 mg/kg IP, ondansetron 0.001 mg/kg IP, 2 to 3 rats, FIG. 2): attenuated the alcohol deprivation effect
alcohol deprivation effect (ADE), consumption 24 hours after ethanol reinstated [1]: blocked the ADE
decrease from baseline in alcohol consumption [2]: 13±5%
ethanol consumption vs baseline [2]: significant decrease from baseline ethanol consumption
preference for ethanol over water, average on test sessions [2]: 0.51±0.2
preference for ethanol over water, baseline change [2]: −9±4%
adverse event rate: dizziness ([6]; different study): 28%
adverse event rate: paresthesia ([6]; different study): 54%
adverse event rate: slowing in psychomotor performance ([6]; different study): 27%
individuals reporting weight loss [6]: 19.7%
frequency of paresthesia ([6]; share of individuals): over 50%
alcohol consumption, change from baseline [4]: lack of modulation
ethanol consumption [4]: no affect was observed on consumption
preference ratio for ethanol over water, average on test sessions [4]: 0.25±0.03
preference for ethanol over water, baseline change [4]: −6±7%
Cohen's effect size: drinks per day [7]: −0.80
Cohen's effect size: drinks per drinking day [7]: −0.63
Cohen's effect size: percentage of days abstinent [7]: +0.73

From US20100041689A1, “Combined Effects of Topiramate and Ondansetron on Alcohol Consumption” (UNIVERSITY OF VIRGINIA PATENT FOUNDATION, priority 2006, published 2010)
